Data as given in patent publication US8476031B2, “Methods for protein labeling based on acyl carrier protein” (priority 2003, dated 2013).

Columns and labels:
[1] = molecular target: 6xHis-ACP (Escherichia coli, UniProt P0A6A8+P24224); experiment: In vitro biotinylation of 6xHis-ACP using CoA-Bt and 6xHis-ACPS (Western blot); type: biochemical, E. coli; conditions: 6xHis-ACP 1 μM, 6xHis-ACPS 0.2 μM, CoA-Bt 5 μM; controls lacking components
Protocol: (A) Analysis of the reaction of 6xHis-ACP (1 μM), 6xHis-ACPS (0.2 μM) and CoA-Bt (5 μM). At indicated times (t) aliquots are removed from the reaction mixture and biotinylation of 6xHis-ACP probed by Western blotting using a streptavidin-peroxidase conjugate.
Purified 6xHis-ACP (1 μM) is incubated with 6xHis-ACPS (0.2 μM) and MgCl2 (10 mM) in reaction buffer (43 μl, 50 mM Tris Cl, pH 8.8) at room temperature. An aliquot of 7.5 μl is taken for analysis. CoA-Bt is added to a final concentration of 5 μM. Aliquots of 7.5 μl are taken at defined times. The aliquots are quenched for 30 seconds with coenzyme A (1 mM final concentration), and 8.2 μl SDS-buffer 2× are added. The samples are heated for 2 minutes at 95° C. The biotinylated 6xHis-ACP is detected by Western-blotting, using a streptavidin-horseradish peroxidase conjugate (NEN) and a chemiluminescent peroxidase substrate (Renaissance reagent plus, NEN). The western blot is analyzed using an image station (Kodak 440). As controls, samples containing each protein alone, and samples containing only one of the two proteins and CoA-Bt are also prepared and analyzed for biotinylation as above in order to check the background and to check the specificity of the reaction.

[2] = molecular target: T1, ACP-NK1 fusion protein displayed on HEK293 cells (UniProt P0A6A8+P24224+P25103); experiment: Labeling of ACP-NK1 fusion protein displayed on HEK293 cells (confocal fluorescence microscopy); type: cell-based; conditions: 5 μM CoA substrate, 1 μM 6xHis-AcpS, 10 min RT; CoA-Bt followed by Streptavidin-Cy5; no staining of non-transfected cells
T1 construct: FLAG tag (C); 6xHis tag (C); expressed in transfected cells; host or cells: HEK293 (transient, pCEP4 vector)
T1 sequence (P0A6A8+P25103 fused, one chain of several): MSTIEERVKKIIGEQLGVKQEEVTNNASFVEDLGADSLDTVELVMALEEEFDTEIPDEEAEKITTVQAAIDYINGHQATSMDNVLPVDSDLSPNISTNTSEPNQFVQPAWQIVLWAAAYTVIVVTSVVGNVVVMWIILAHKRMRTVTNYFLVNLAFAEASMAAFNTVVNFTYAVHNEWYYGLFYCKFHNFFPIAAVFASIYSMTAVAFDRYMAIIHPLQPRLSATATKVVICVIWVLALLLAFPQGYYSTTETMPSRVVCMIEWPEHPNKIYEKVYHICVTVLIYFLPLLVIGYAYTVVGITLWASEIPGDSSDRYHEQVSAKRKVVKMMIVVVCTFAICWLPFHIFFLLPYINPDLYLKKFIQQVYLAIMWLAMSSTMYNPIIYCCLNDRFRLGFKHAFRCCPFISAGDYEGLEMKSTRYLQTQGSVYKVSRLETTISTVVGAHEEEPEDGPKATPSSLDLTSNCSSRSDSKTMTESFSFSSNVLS
Protocol: For the transient expression of ACP-NK1, the signal sequence of the 5-HT3-receptor (Sig5HT3) is fused to the N terminus of ACP via a short DYV linker and NK1 is fused to the C terminus of ACP via a short TS linker. In the resulting construct, a FLAG tag and a 6xHis tag is also attached to the C terminus of NK1. The corresponding gene of the fusion protein is inserted into the NheI and BamHI sites of the vector pCEP4 (Invitrogen). HEK293 cells are grown in DMEM/F2 (Dulbecco's modified Eagle medium, GIBCO BRL) supplemented with […] fetal calf serum (GIBCO, BRL). Transient transfection is performed as described (Nat Biotechnol 21, 86-89 (2003)) and the HEK293 cells are co-transfected with vectors expressing ACP-NK1 and a nuclear targeted EGEP (EGFP-NLS3). After 24 h, cells are incubated for 10 min at room temperature with 500 μl of PBS buffer containing MgCl2 (10 mM), 6xHis-AcpS (1 μM) and either CoA-Cy3, CoA-Cy5 or CoA-Bt (each 5 μM). The cells are then washed three times with PBS to remove any excess substrate and directly analyzed by laser-scanning confocal fluorescence microscopy when labeled with Cy3 or Cy5. Biotinylated cells are incubated with FluoroLink™ Cy5-labeled streptavidin (Amersham Biosciences) at concentrations of 1 μg/ml in PBS before being washed three times with PBS. Laser-scanning confocal micographs are recorded using a 488 nm argon/krypton laser line; a 543 nm HeNe laser line or a 633 nm HeNe laser line on a Zeiss LSM 510 microscope (Carl Zeiss AG, Göttingen, Germany) with a 63× water (1.2 numerical aperture) objective. Scanning speed and laser intensity are adjusted to avoid photobleaching of the fluorescent probes, and damage or morphological changes of the cells. Fluorescence is analyzed in the channels sensitive to GFP and sensitive to the respective dye. […] The ACP-NK1 receptor transiently expressed in HE293 cells is co-stained in a further experiment with CoA-Cy5 and with tetramethylrhodamine-labeled substance P(SP-rho), the natural ligand of NK1.

[3] = molecular target: T2, 6xHis-ACPS (Escherichia coli, UniProt P24224); experiment: Competition assay between CoA and CoA-label as ACPS substrates; type: biochemical, E. coli; conditions: 6xHis-ACP 0.4 μM, 6xHis-ACPS 0.4 μM, CoA-L 2 μM, CoA 0-80 μM; fit I=A/(1+Bx) of Western blot intensities
T2 sequence (P24224 1-126): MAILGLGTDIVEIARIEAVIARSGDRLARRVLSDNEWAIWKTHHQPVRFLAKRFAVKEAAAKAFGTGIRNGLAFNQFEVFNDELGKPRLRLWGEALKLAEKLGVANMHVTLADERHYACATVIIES
Protocol: (C) Competition assay between CoA and CoA-Bt or CoA-Dg as ACPS substrates: 6xHis-ACP (0.4 μM), 6xHis-ACPS (0.4 μM), CoA-Bt or CoA-Dg (2 μM) and varying concentrations of CoA (0-80 μM) are incubated for 30 min and the degree of labeling determined by Western blotting.
Purified 6xHis-AcpS (0.4 μM) is incubated at RT with either CoA-Bt or CoA-Dg (2 μM), variable amounts of CoA (0, 2, 4, 8, 12, 20, 40, 80 μM) and purified 6xHis-ACP-ha (0.4 μM) in 20 μl reaction buffer (50 mM Tris.Cl, pH 7.5, 10 mM MgCl2). After 25 minutes, each sample is quenched by addition of 20 μl of 2×SDS sample buffer and heated at 95° C. for 2 minutes. Labeled 6xHis-ACP-ha is detected by Western-blotting using either a streptavidin-horseradish peroxidase conjugate (dilution 1:12500) or an anti-digoxigenin antibody-horseradish peroxidase conjugate (dilution 1:500) and a chemiluminescent peroxidase substrate. Signal intensities at 0 μM CoA are arbitrary set to 1 for each experiment.

[4] = molecular target: T3, ACP-NK1 receptor transiently expressed in HE293 cells (UniProt P0A6A8+P25103); experiment: Co-staining of ACP-NK1 with CoA-Cy5 and SP-rho, reversal by unlabeled substance P; type: cell-based; conditions: CoA-Cy5 and SP-rho co-stained
T3 construct: FLAG tag (C); 6xHis tag (C); expressed in transfected cells; host or cells: HEK293 (transient, pCEP4 vector)
T3 sequence (P0A6A8+P25103 fused): as the sequence (P0A6A8+P25103 fused, one chain of several) above
Protocol: For the transient expression of ACP-NK1, the signal sequence of the 5-HT3-receptor (Sig5HT3) is fused to the N terminus of ACP via a short DYV linker and NK1 is fused to the C terminus of ACP via a short TS linker. In the resulting construct, a FLAG tag and a 6xHis tag is also attached to the C terminus of NK1. The corresponding gene of the fusion protein is inserted into the NheI and BamHI sites of the vector pCEP4 (Invitrogen). HEK293 cells are grown in DMEM/F2 (Dulbecco's modified Eagle medium, GIBCO BRL) supplemented with […] fetal calf serum (GIBCO, BRL). Transient transfection is performed as described (Nat Biotechnol 21, 86-89 (2003)) and the HEK293 cells are co-transfected with vectors expressing ACP-NK1 and a nuclear targeted EGEP (EGFP-NLS3). […] The cells are then washed three times with PBS to remove any excess substrate and directly analyzed by laser-scanning confocal fluorescence microscopy when labeled with Cy3 or Cy5. […] Laser-scanning confocal micographs are recorded using a 488 nm argon/krypton laser line; a 543 nm HeNe laser line or a 633 nm HeNe laser line on a Zeiss LSM 510 microscope (Carl Zeiss AG, Göttingen, Germany) with a 63× water (1.2 numerical aperture) objective. […] Fluorescence is analyzed in the channels sensitive to GFP and sensitive to the respective dye. […]

6xHis-ACP, sequence (P0A6A8 whole entry, looked up, one chain of several): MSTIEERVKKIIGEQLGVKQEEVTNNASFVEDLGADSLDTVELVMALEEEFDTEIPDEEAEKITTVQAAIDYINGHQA

Row | Structure (SMILES) | biotinylation of 6xHis-ACP, specificity controls [1] | membrane labelling of transfected HEK293 cells [2] | ratio of the specificity constants (kcat/KM)CoA/(kcat/KM)CoA-L [3] | staining localisation in co-staining experiment [4]
1 | CC(C)(COP(=O)(O)OP(=O)(O)OC[C@H]1O[C@@H](n2cnc3c(N)ncnc32)C(O)[C@H]1OP(=O)(O)O)[C@@H](O)C(=O)NCCC(=O)NCCS[C@@H]1CC(=O)N(CCCCCC(=O)NNC(=O)CCCC[C@@H]2SC[C@@H]3NC(=O)N[C@@H]32)C1=O (stereo partly shown) [CoA-Bt] | depends on the presence of all three components | clear membrane labelling | 0.48 | –
2 | CCN1/C(=C/C=C/C2=[N+](CCCCCC(=O)NCCN3C(=O)C[C@@H](SCCNC(=O)CCNC(=O)[C@H](O)C(C)(C)COP(=O)(O)OP(=O)(O)OC[C@H]4O[C@@H](n5cnc6c(N)ncnc65)C(O)[C@H]4OP(=O)(O)O)C3=O)c3ccc(S(=O)(=O)O)cc3C2(C)C)C(C)(C)c2cc(S(=O)(=O)[O-])ccc21 (stereo partly shown) [CoA-Cy3] | – | clear membrane labelling | – | –
3 | CCN1/C(=C/C=C/C=C/C2=[N+](CCCCCC(=O)NCCN3C(=O)C[C@@H](SCCNC(=O)CCNC(=O)[C@H](O)C(C)(C)COP(=O)(O)OP(=O)(O)OC[C@H]4O[C@@H](n5cnc6c(N)ncnc65)C(O)[C@H]4OP(=O)(O)O)C3=O)c3ccc(S(=O)(=O)O)cc3C2(C)C)C(C)(C)c2cc(S(=O)(=O)[O-])ccc21 (stereo partly shown) [CoA-Cy5] | – | clear membrane labelling | – | stain exclusively the membrane area
4 | CC(C)(COP(=O)(O)OP(=O)(O)OC[C@H]1O[C@@H](n2cnc3c(N)ncnc32)C(O)[C@H]1OP(=O)(O)O)[C@@H](O)C(=O)NCCC(=O)NCCSC1CC(=O)N(CCCCCC(=O)NNC(=O)CCC(=O)N[C@H]2CC[C@@]3(C)[C@H](CC[C@@H]4[C@H]3C[C@@H](O)[C@]3(C)[C@@H](C5=CC(=O)OC5)CC[C@]43O)C2)C1=O (stereo partly shown) [CoA-Dg] | – | – | 0.35 | –
